Experimental data as given in patent US5081116A, “Cephalosporin derivatives” (Yamanouchi Pharmaceutical Co., Ltd., priority 1989, dated 1992).
In brackets after ≈: the same amount, converted by molar mass. Read-outs that look alike come from different tables or passages of the source.

What was measured:
CAY 1104 = assay: Minimum growth inhibition concentration (antimicrobial activity); assay type: cell-based; conditions: Enterobacter Faecalis CAY 1104
From the text: (§1) The antimicrobial activity of the 7-[2-(2-amino-4-thiazolyl)-2-(hydroxyimino)acetamido]-3-(1,3-dithiolan-2-yl)-3-cephem-4-carboxylic acid which is such that A of the compounds of the general formula is the hydrogen atom (Compound of Example 1) is shown in Table 1.
(§2) (Minimum Growth Inhibition Concentration, γ/ml)

Escherichia coli 0-1 = assay: as above; assay type: cell-based; conditions: 01
From the text: as §1, §2

[1] = test system: Klebsiella pneumoniae ATCC 10031; assay: as above; assay type: cell-based; conditions: ATCC10031
From the text: as §1, §2

[2] = test system: Staphylococcus aureus FDA 209P JC-1; assay: as above; assay type: cell-based; conditions: FDA209P
From the text: as §1, §2

[3] = test system: Staphylococcus epidermidis IID 866; assay: as above; assay type: cell-based; conditions: IID866
From the text: as §1, §2

[4] = Absorption rate from the digestive tract (urinary and biliary recovery after oral administration); assay type: in vivo; conditions: rat, 50 mg/kg, bioassay
Description: Further, the absorption rate of the compound of the general formula (I) wherein A is the 1-acetoxyethyl group (Compound of Example 2) from the digestive tract is shown as follows together with the testing method therefor.
An ether-anesthetized rat was fixed with the belly upside and a polyethylene tube was inserted into the bile-duct. The urine was collected from the same rat. After the test compound was orally administered at 50 mg/kg, urine and bile samples were collected within 0-6 hours and also within 6-24 hours. The amounts recovered in the urine and the bile within 24 hours were determined by measuring the test compound concentrations in the urine and the bile by a bioassay method using the standard solution of the test compound prepared with M/15 phosphate buffer.

Compound | MIC (CAY 1104) | MIC (Escherichia coli 0-1) | MIC [1] | MIC [2] | MIC [3] | dose excreted at 24 h ([4]; bile, read-out: Recovery Rate (%) within 24 hours In the Bile) | dose excreted at 24 h ([4]; urine, read-out: Recovery Rate (%) within 24 hours In the Urine) | dose excreted at 24 h ([4]; urine and bile, urine + bile, read-out: Recovery Rate (%) within 24 hours Total)
Nc1nc(/C(=N/O)C(=O)NC2C(=O)N3C(C(=O)O)=C(C4SCCS4)CS[C@H]23)cs1 (some centres unmarked) [Example 1, (Z)-7-[2-(2-amino-4-thiazolyl)-2-(hydroxyimino)acetamido]-3-(1,3-dithiolan-2-yl)3-cephem-4-carboxylic acid] | 3.13 µg/mL (≈ 6.61 µM) | 0.39 µg/mL (≈ 0.824 µM) | 0.78 µg/mL (≈ 1.65 µM) | 0.39 µg/mL (≈ 0.824 µM) | 0.39 µg/mL (≈ 0.824 µM) | – | – | –
CC(=O)OC(C)OC(=O)C1=C(C2SCCS2)CS[C@@H]2C(NC(=O)/C(=N\O)c3csc(N)n3)C(=O)N12 (some centres unmarked) [Example 2, 1-acetoxyethyl (Z)-7-[2-(2-amino-4-thiazolyl)-2-(hydroxyimino)acetamido]-3-(1,3-dithiolan-2-yl)-3-cephem-4-carboxylate] | – | – | – | – | – | 8.5% | 14.1% | 22.6%
